According to US20180327367A1, “MACROCYCLIC BROAD SPECTRUM ANTIBIOTICS” (priority 2015, published 2018):
Values after ≈ are worked out from the molar mass of the structure shown. Where two headings read alike, the source gives them in different places.

Columns and labels:
Format in all cases: cell-based
[1] = test system: Methicillin Resistant Staphylococcus aureus strain USA 300, NRS384; test: Minimum inhibitory concentration, broth micro-dilution (CLSI), S. aureus; conditions: Staphylococcus aureus, MRSA / NRS 384 / USA300, 22 h, 35° C., 22 hours
How it was run: (§1)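 Ten-point 2-fold series began at 4 μg/mL in protocol 2 and 0.5 μg/mL in protocol 3, in cation-adjusted MHB plus 0.002% Tween-80. Bacteria added to OD600 0.0005 final and incubated at 35° C for 22 hours per CLSI microdilution.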

[2] = test system: Escherichia coli MC4100 harboring the IMP4213 (E. coli IMP); test: microbe, parasite or virus in culture; conditions: Escherichia coli, 22 h, read-out: MIC (μg/mL) E. coli IMP, E. coli MC4100 IMP4213, increased outer-membrane permeability; 35° C., 22 hours
How it was run: as §1

[3] = test system: Escherichia coli ATCC 25922; test: Minimum inhibitory concentration, broth micro-dilution (CLSI), E. coli; conditions: Escherichia coli, ATCC25922, 22 h, 35° C., 22 hours
[4] = MRSA USA 300 NRS384, read-out: MIC (μg/mL) S. aureus
[5] = E. coli ATCC 25922, read-out: MIC (μg/mL) E. coli
[6] = read-out: MIC (μg/mL) S. aureus, MRSA USA 300 NRS384
[7] = read-out: MIC (μg/mL) E. coli, E. coli ATCC 25922

Compound	MIC [1, 4] [µg/mL]	MIC [2] [µg/mL]	MIC [3, 5] [µg/mL]	MIC [1, 6] [µg/mL]	MIC [3, 7] [µg/mL]
Cc1c(C(=O)N[C@@H](CCN)C(=O)N(C)[C@@H]2C(=O)N[C@@H](C)C(=O)N[C@H](C(=O)NCC#N)Cc3ccc(OCCN)c(c3)-c3cc2ccc3OCCN)cnn1-c1ccc(CC(C)C)cc1 [Compound 444]	0.094 (≈ 0.107 µM)	0.031 (≈ 0.0353 µM)	3 (≈ 3.42 µM)		
Cc1cc(-n2cc(C#CC(C)C)cn2)ccc1C(=O)N[C@@H](CCN)C(=O)N(C)[C@@H]1C(=O)N[C@@H](C)C(=O)N[C@H](C(=O)NCC#N)Cc2ccc(OCCN)c(c2)-c2cc1ccc2OCCN [Compound 446]	0.063 (≈ 0.0709 µM)	0.012 (≈ 0.0135 µM)	0.5 (≈ 0.563 µM)		
CCCCCCCCc1ccc(C(=O)N[C@@H](CCN)C(=O)N(C)[C@@H]2C(=O)N[C@@H](C)C(=O)N[C@H](C(=O)NCC#N)Cc3ccc(OCCN)c(c3)-c3cc2ccc3OCCN)c(CCC(=O)O)c1 [Compound 447]	0.13 (≈ 0.14 µM)	0.012 (≈ 0.013 µM)	2 (≈ 2.16 µM)		
CCCCCCCCc1ccc(C(=O)N[C@@H](CCN)C(=O)N(C)[C@@H]2C(=O)N[C@@H](C)C(=O)N[C@H](C(=O)NCC#N)Cc3ccc(OCCN)c(c3)-c3cc2ccc3OCCN)c(CCC#N)c1 [Compound 449]		0.063 (≈ 0.0694 µM)		0.094 (≈ 0.104 µM)	1 (≈ 1.1 µM)
CCCCCCCCc1ccc(C(=O)N[C@@H](CCN)C(=O)N(C)[C@@H]2C(=O)N[C@@H](C)C(=O)N[C@H](C(=O)NCC#N)Cc3ccc(OCCN)c(c3)-c3cc2ccc3OCCN)c(CCC(N)=O)c1 [Compound 451]	0.023 (≈ 0.0249 µM)	0.016 (≈ 0.0173 µM)	2 (≈ 2.16 µM)		
CCCCCCCCCCN(CCN)CCC(=O)N(C)[C@@H]1C(=O)N[C@@H](C)C(=O)N[C@H](C(=O)NCC#N)Cc2ccc(OCCN)c(c2)-c2cc1ccc2OCCN [Compound 452]		2 (≈ 2.53 µM)		0.19 (≈ 0.24 µM)	64 (≈ 80.8 µM)
CCCCCCCCCCCC(=O)N[C@@H](CCC#N)C(=O)N(C)[C@@H]1C(=O)N[C@@H](C)C(=O)N[C@H](C(=O)NCC#N)Cc2ccc(OCCN)c(c2)-c2cc1ccc2OCCN [Compound 455]	0.5 (≈ 0.602 µM)	0.5 (≈ 0.602 µM)	32 (≈ 38.6 µM)		
CCCCCCCCCCCCCC(=O)N[C@@H](CCN)C(=O)N(C)[C@@H]1C(=O)N[C@@H](C)C(=O)N[C@H](C(=O)NCC#N)Cc2ccc(OCCO)c(c2)-c2cc1ccc2OCCO [Compound 458]	0.25 (≈ 0.294 µM)	0.0078 (≈ 0.00918 µM)	16 (≈ 18.8 µM)		
CCCCCCc1ccc(C(=O)N[C@@H](CCN)C(=O)N(C)[C@@H]2C(=O)N[C@@H](C)C(=O)N[C@H](C(=O)NCC#N)Cc3ccc(O)c(c3)-c3cc2ccc3O)c(C)c1 [Compound 466]	0.25 (≈ 0.332 µM)	0.063 (≈ 0.0836 µM)	64 (≈ 84.9 µM)		
CCCCCCc1ccc(C(=O)N[C@@H](CCNC=N)C(=O)N(C)[C@@H]2C(=O)N[C@@H](C)C(=O)N[C@H](C(=O)NCC#N)Cc3ccc(O)c(c3)-c3cc2ccc3O)c(C)c1 [Compound 467]		1 (≈ 1.28 µM)		1 (≈ 1.28 µM)	> 64
CCCCCCCCCCCCCC(=O)N(C)[C@@H]1C(=O)N[C@@H](C)C(=O)N[C@H](C(=O)N[C@@H](C)C#N)Cc2ccc(OCCN)c(c2)-c2cc1ccc2OCCN [Compound 474]	2 (≈ 2.62 µM)	0.19 (≈ 0.249 µM)	4 (≈ 5.25 µM)		
CCCCCCc1ccc(C(=O)N[C@@H](Cc2ccncc2)C(=O)N(C)[C@@H]2C(=O)N[C@@H](C)C(=O)N[C@H](C(=O)NCC#N)Cc3ccc(OCCN)c(c3)-c3cc2ccc3OCCN)c(C)c1 [Compound 479]	0.25 (≈ 0.282 µM)	0.5 (≈ 0.563 µM)	32 (≈ 36 µM)		
CCCCCCc1ccc(C(=O)N[C@@H](CCNC(=N)N)C(=O)N(C)[C@@H]2C(=O)N[C@@H](C)C(=O)N[C@H](C(=O)NCC#N)Cc3ccc(OCCN)c(c3)-c3cc2ccc3OCCN)c(C)c1 [Compound 485]	0.063 (≈ 0.0714 µM)	0.031 (≈ 0.0351 µM)	2 (≈ 2.27 µM)		
CCCCCCCCc1ccc2c(=O)n([C@@H](CCN)C(=O)N(C)[C@@H]3C(=O)N[C@@H](C)C(=O)N[C@H](C(=O)NCC#N)Cc4ccc(OCCN)c(c4)-c4cc3ccc4OCCN)cnc2c1 [Compound 486]		0.13 (≈ 0.148 µM)		0.094 (≈ 0.107 µM)	3 (≈ 3.41 µM)
CCCCCCCCc1ccc2c(=O)n([C@@H](CCN)C(=O)N(C)[C@@H]3C(=O)N[C@@H](C)C(=O)N[C@H](C(=O)NCC#N)Cc4ccc(OCCN)c(c4)-c4cc3ccc4OCCN)c(C)nc2c1 [Compound 487]	0.5 (≈ 0.56 µM)	0.25 (≈ 0.28 µM)	8 (≈ 8.96 µM)		
CCCCCCCCc1ccc2c(c1)CN([C@@H](CCN)C(=O)N(C)[C@@H]1C(=O)N[C@@H](C)C(=O)N[C@H](C(=O)NCC#N)Cc3ccc(OCCN)c(c3)-c3cc1ccc3OCCN)C2=O [Compound 488]		0.13 (≈ 0.15 µM)		0.094 (≈ 0.109 µM)	4 (≈ 4.62 µM)
